Source: ChEMBL document CHEMBL5244246, “Recent advances in chemistry and bioactivity of marine cyanobacteria Moorea species” (Eur J Med Chem, 2020)
In brackets after ≈: the same amount, converted by molar mass. Several values for one entry are separate records, joined by “and”; a condition that tells them apart may be missing. Equal values may be shown once.

Key:
NCI-H460 = assay: Cytotoxicity against human NCI-H460 cells; type: functional, cell-based
N2a = assay: Cytotoxicity against mouse Neuro2a cells assessed as inhibition of cell growth; type: functional, cell-based; settings: Mus musculus, N2a
Homo sapiens = species on record: Homo sapiens; assay: Inhibition of Voltage-gated sodium channel (unknown origin) at 3 ug/ml incubated for 18 hrs by cell-based bioassay relative to control; settings: dose 3.0 µg/ml
Nitzschia amabilis = assay: Growth inhibition of marine diatom assessed as inhibition rate at 10 ug/ml relative to control; type: functional
L1210 [1] = assay: Cytotoxicity against mouse L1210 cells assessed as inhibition of cell growth; type: functional, cell-based
[2] = Toxicity in shrimp assessed as lethal dose; settings: palaemon paucidens
[3] = target: Protein kinase C delta type (Homo sapiens, UniProt Q05655); assay: Inhibition of [3H]-PDBu binding to PKCdelta C1B domain (unknown origin) by competitive binding assay
Protein kinase C delta type, sequence (Q05655 whole entry, the tested form may be a part): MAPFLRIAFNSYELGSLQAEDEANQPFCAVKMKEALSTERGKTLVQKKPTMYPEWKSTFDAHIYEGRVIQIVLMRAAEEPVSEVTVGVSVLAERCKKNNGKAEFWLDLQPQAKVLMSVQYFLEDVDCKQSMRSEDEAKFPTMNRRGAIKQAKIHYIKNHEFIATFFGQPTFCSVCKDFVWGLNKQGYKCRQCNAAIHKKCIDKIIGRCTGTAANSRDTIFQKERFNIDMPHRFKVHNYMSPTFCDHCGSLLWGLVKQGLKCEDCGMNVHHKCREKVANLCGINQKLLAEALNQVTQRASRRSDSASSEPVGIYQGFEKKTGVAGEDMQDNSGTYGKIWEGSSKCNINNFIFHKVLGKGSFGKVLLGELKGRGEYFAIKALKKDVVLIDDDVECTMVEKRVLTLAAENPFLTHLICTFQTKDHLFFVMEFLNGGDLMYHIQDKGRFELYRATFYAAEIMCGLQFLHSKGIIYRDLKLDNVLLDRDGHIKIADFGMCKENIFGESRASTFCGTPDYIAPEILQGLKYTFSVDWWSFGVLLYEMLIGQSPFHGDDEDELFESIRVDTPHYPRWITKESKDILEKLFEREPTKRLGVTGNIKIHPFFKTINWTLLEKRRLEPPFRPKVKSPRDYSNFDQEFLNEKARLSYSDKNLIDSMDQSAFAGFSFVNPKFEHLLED

[4] = Toxicity in brine shrimp assessed as lethal dose; settings: artemia salina; read-out: LD50 (the source's name)
MCF7 = assay: Cytotoxicity against human MCF7 cells assessed as inhibition of cell growth; type: functional, cell-based
HeLa = assay: Cytotoxicity against human HeLa cells assessed as inhibition of cell growth incubated for 48 hrs by WST-8 colorimetric assay; type: functional, cell-based
[5] = test system: Mycobacterium tuberculosis; assay: Antimycobacterial activity against Mycobacterium tuberculosis H37Rv assessed as inhibition of bacterial growth at 12.5 ug/ml relative to control; type: functional
HT-29 = assay: Cytotoxicity against human HT-29 cells assessed as cell growth inhibition; type: functional
A549 = assay: Cytotoxicity against human A549 cells assessed as cell growth inhibition; type: functional, cell-based
MDA-MB-231 = assay: Cytotoxicity against human MDA-MB-231 cells assessed as cell growth inhibition; type: functional
L1210 [6] = assay: Cytotoxicity against mouse L1210 cells assessed as inhibition of cell growth at 10 ug/mL relative to control; type: functional

Molecule CCCCCCCC[C@@H](C/C=C/CCC(=O)NC/C(=C/Cl)C1=CCCCC1=O)OC has an IC50 (NCI-H460) of 1.1 µM and an IC50 (N2a) of 0.49 µM.

With CCCCCCCC[C@@H](C/C=C/CCC(=O)NC/C(=C/Cl)[C@]12O[C@H]1[C@H](OC(C)=O)CCC2=O)OC the inhibition (Homo sapiens) was 28%, the IC50 (NCI-H460) was 4 µM and the IC50 (N2a) was 4 µM.

In the case of CO[C@@H](CC[C@H](C)[C@@H]1CC=C[C@]2(O1)[C@H](C(=O)O[C@@H]1CC(=O)O[C@@H]1C)C(=O)[C@H](C)CC2(C)C)c1cc(O)ccc1Br, the inhibition at 10 µg/mL (Nitzschia amabilis) is reported as 30%.

C=C[C@@](C)(CCC=C(C)C)c1ccc2c3c(c[nH]c13)C[C@@H](CO)NC(=O)[C@H](C(C)C)N2C showed an IC50 (L1210 [1]) of 8.1 µM, an LD100 [2] of 5 mg/kg and a Ki [3] of 0.00011 µM.

Work on CCCCCCCCCCCCCC/C=C/CCC1OC1C(=O)N[C@H](C)CO (some centres not stated) yielded an LC50 [4] of 13 µM.

Work on C=C(CCNC(=O)CC/C=C/C[C@H](CCCCCCCC)OC)[C@@]12O[C@H]1[C@H](O[C@H]1OC[C@H](OC)[C@@H](O)[C@@H]1OC)C=C(C)C2=O yielded an inhibition (Homo sapiens) of 28%, an IC50 (NCI-H460) of 4 µM and an IC50 (N2a) of 4 µM.

With CO/C(=C/C(=O)N1C(=O)C=C[C@@H]1C)CCNC(=O)CC/C=C/C(C)CC/C(=C\Cl)CCCC#CBr (some centres not stated) the IC50 (NCI-H460) was 15 µM and the IC50 (N2a) was 15 µM.

With CCCCCCCCCCCC/C=C/C[C@@H](O)[C@H](CO[C@@H]1O[C@H](CO)[C@@H](O)[C@H](O)[C@H]1O)NC(=O)CCCCCCCCCCCCCCCCCCCCCCCCC the IC50 (MCF7) was 18.2 µg/mL (≈ 21.7 µM).

CO[C@@H](CC[C@H](C)[C@H]1O[C@@]23C[C@H](OC(=O)C[C@H]([C@@H](C)O)OC(=O)/C=C(\O2)[C@@](C)(OO)CC3(C)C)[C@@H]1C)c1cc(O)ccc1Br gave an inhibition at 10 µg/mL (Nitzschia amabilis) of 30%.

For CO[C@@H](CC[C@H](C)[C@H]1O[C@]23C[C@H](OC(=O)C[C@H]([C@@H](C)O)OC(=O)CC(=C(C)CC2(C)C)O3)[C@@H]1C)c1cc(O)ccc1Br, the inhibition at 10 µg/mL (Nitzschia amabilis) was 30%.

Molecule CCC1CC(C)CC(=O)N(C)/C=C/CCC(C)C(=O)N[C@@H](C(C)C)C(=O)N(C)[C@@H](Cc2ccccc2)C(=O)N(C)[C@@H]([C@@H](C)O)C(=O)N(C)[C@@H](Cc2ccccc2)C(=O)O1 (some centres not stated) has an LC50 [4] of 9 µM and an IC50 (N2a) of 6 µM.

Molecule CC[C@@H](C)[C@H]1C(=O)N2CCC[C@H]2C(=O)O[C@H](C(C)(C)C)C[C@@H](C)C[C@H](O)[C@H](C)C2=N[C@@H](/C=C(\C)C(=O)N[C@@H](Cc3ccc(OCCCCCCCn4cc(-c5ccccc5)nn4)cc3)C(=O)N(C)[C@@H](C)C(=O)N1C)CS2 has an IC50 (HeLa) of 0.05 µM.

For C=C[C@@](C)(CCC=C(C)C)c1ccc2c3c(c[nH]c13)C[C@@H](CO)NC(=O)[C@@H](C(C)C)N2C, the IC50 (L1210 [1]) was 20.4 µM, the LD100 [2] was 7.5 mg/kg and the Ki [3] was 0.017 µM.

For CCCCCCC[C@@H](C/C=C/CCC(=O)N(C)C/C(=C/Cl)C/C(=C\C(=O)N1CC(O)CC1=O)OC)OC (some centres not stated), the inhibition at 12.5 µg/mL [5] was 10%, the GI50 (HT-29) was 40 µM and the GI50 (A549) was 40 µM. For the same molecule, the GI50 (MDA-MB-231) was 40 µM.

For CCCCCCCC[C@@H](C/C=C/CCC(=O)N(C)C/C(=C\Cl)C/C(=C\C(=O)N1CC(OC)=CC1=O)OC)OC, the IC50 (L1210 [1]) was 2.9 µM.

Molecule C=CC/C=C/N(C)C(=O)CCCCCCCC/C=C/[C@H](CSSC[C@@H](/C=C/CCCCCCCCC(=O)N(C)/C=C/CC=C)NC(C)=O)NC(C)=O has an IC50 (N2a) of 1.4 µg/mL.

In the case of CCCCCCCC[C@@H](C/C=C/CCC(=O)NC/C(=C/Cl)[C@]12O[C@H]1[C@H](O)CCC2=O)OC, the IC50 (NCI-H460) is reported as 4 µM and the IC50 (N2a) is reported as 4 µM.

Molecule CC[C@@H](C)[C@H]1C(=O)N2CCC[C@H]2C(=O)O[C@H](C(C)(C)C)C[C@@H](C)C[C@H](O)[C@@H](C)C2=N[C@@H](/C=C(\C)C(=O)N[C@@H](Cc3ccc(OC)cc3)C(=O)N(C)[C@@H](C)C(=O)N1C)CS2 has an IC50 (HeLa) of 0.19 µM.

With CO[C@@H](CC[C@H](C)[C@H]1O[C@@]23C[C@H](OC(=O)C[C@H]([C@@H](C)O)OC(=O)/C=C(\O2)[C@]2(CO2)CC3(C)C)[C@@H]1C)c1cc(O)ccc1Br the “inhibition (INH)” value (L1210 [6]; dose 10 µg/ml) was 10% and 25% and the inhibition at 10 µg/mL (Nitzschia amabilis) was 30%.

With CCCCCCCC[C@@H](C/C=C/CCC(=O)N(C)C/C(=C\Cl)C/C(=C\C(=O)N1C[C@H](O)CC1=O)OC)OC the IC50 (L1210 [1]) was 2.9 µM.

CC(=O)n1c(=O)ccn([C@H]2C[C@H](O)[C@@H](CO)O2)c1=O gave an IC50 (MCF7) of 18.2 µg/mL (≈ 67.3 µM).

For COC(=O)C(CCCCCC(Cl)Cl)C(CCCC#C/C=C/Cl)NC=O (configuration not stated), the LC50 [4] was 1.7 µg/mL.

CO[C@@H](CC[C@H](C)[C@H]1O[C@@]23C[C@H](OC(=O)C[C@H]([C@@H](C)O)OC(=O)/C=C(\O2)[C@@](C)(OO)CC3(C)C)[C@@H]1C)c1cccc(O)c1 gave an inhibition at 10 µg/mL (L1210 [6]; Mus musculus, L1210, dose 10 µg/ml) of 10%.

In the case of C=C[C@@](C)(CCC=C(C)C)c1ccc2c3c1NC(=O)[C@@]3(O)C[C@@H](CO)NC(=O)[C@@H](C(C)C)N2C, the IC50 (L1210 [1]) is reported as 98 µM, the LD33 [2] is reported as 89 mg/kg and the Ki [3] is reported as 1.4 µM.
